Laboratory results as given in patent publication US20210382058A1, “PATIENT SELECTION FOR TREATMENT OF MYC POSITIVE CANCERS WITH INDENOISOQUINOLINES” (Purdue Research Foundation, priority 2020, published 2021).
Read-outs that look alike come from different tables or passages of the source.

Key:
NCI-60 cancer cell lines = test: NCI-60 cancer cell line drug screen (GI50, MGM); assay type: cell-based, human; details: Homo sapiens; for GI50: read-out: Antiproliferative Activities [GI50 (μM)]
Description: Cancer cells were incubated with the test compounds at five concentrations ranging from 100 μM to 10 nM for 48 h. […] The approximate average of GI50 values across the entire panel of NCI-60 cancer cell lines for each compound was recorded as the MGM value.

MycG4 (MycPu22 DNA) = test: 1H NMR titration of MycPu22 DNA; assay type: binding, human; details: 150 μM DNA, 25° C., pH 7, 100 mM K+
Description: The binding interactions of six selected indenoisoquinolines with MycG4 were examined using ^1H NMR titration experiments in K^+-containing solution. […] The binding appeared to be in the medium-to-fast exchange rate on the NMR time-scale, as shown by the broadening of DNA proton peaks at lower drug equivalence (0.5 and 1) and the sharpening at higher drug equivalence (2 and 3). […] The MycG4 complexes of the five MycG4-interactive indenoisoquinolines were monomeric in nature as shown by native EMSA gels (FIG. 13).
All NMR experiments were conducted using a Bruker AV-500 spectrometer equipped with a Prodigy cryoprobe at 25° C. Watergate water suppression technique was used to suppress water signals. Briefly, each DNA sample was prepared to a final concentration of […] in 75 mM KCl, 25 mM phosphate buffer at pH 7.0, and containing 90/10% H2O/D2O. DNA samples were heated to 95° C. for 5 min then cooled slowly to room temperature for G4 formation. ^1H-NMR titrations were performed by adding increasing amounts of the compound (0.5 to 4 equivalents) to the oligonucleotide solution.

[1] = tested on: MYC protein expression in MCF-7 breast cancer cells; test: Western blotting of MYC protein level in MCF-7 cells; assay type: cell-based, human
Outline: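 MCF-7 cells were exposed to compounds at 0.5, 1, 2 and 4 μM for 24 hours at 37° C. MYC was detected by immunoblot with ECL, using rabbit anti-MYC (1:1000) and anti-GAPDH (1:2000) as loading control.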

SMILES: O=C1c2ccccc2-c2c1c1ccccc1c(=O)n2CCCNCCO [Compound 13]
- GI50 (NCI-60 cancer cell lines; 786-0, Renal Cancer, 786-0): 0.06 µM
- GI50 (NCI-60 cancer cell lines; A498, Renal Cancer, A498): 0.13 µM
- GI50 (NCI-60 cancer cell lines; A549, Non-Small Cell Lung Cancer, A549/ATCC): 0.06 µM
- GI50 (NCI-60 cancer cell lines; ACHN, Renal Cancer, ACHN): 0.04 µM
- GI50 (NCI-60 cancer cell lines; BT-549, Breast Cancer, BT-549): 0.28 µM
- GI50 (NCI-60 cancer cell lines; CAKI-1, Renal Cancer, CAKI-1): 0.24 µM
- GI50 (NCI-60 cancer cell lines; CCRF-CEM, Leukemia, CCRF-CEM): 0.01 µM
- GI50 (NCI-60 cancer cell lines; COLO 205, Colon Cancer, COLO 205): 0.07 µM
- GI50 (NCI-60 cancer cell lines; DU-145, Prostate Cancer, DU-145): 0.06 µM
- GI50 (NCI-60 cancer cell lines; EKVX, Non-Small Cell Lung Cancer, EKVX): 0.43 µM
- GI50 (NCI-60 cancer cell lines; HCC 2998, Colon Cancer, HCC-2998): 0.19 µM
- GI50 (NCI-60 cancer cell lines; HCT-15, Colon Cancer, HCT-15): 0.15 µM
- GI50 (NCI-60 cancer cell lines; HCT-116, Colon Cancer, HCT-116): 0.04 µM
- GI50 (NCI-60 cancer cell lines; HL-60, Leukemia, HL-60(TB)): 0.21 µM
- GI50 (NCI-60 cancer cell lines; HOP-62, Non-Small Cell Lung Cancer, HOP-62): 0.03 µM
- GI50 (NCI-60 cancer cell lines; HOP-92, Non-Small Cell Lung Cancer, HOP-92): 0.15 µM
- GI50 (NCI-60 cancer cell lines; HT-29, Colon Cancer, HT29): 0.12 µM
- GI50 (NCI-60 cancer cell lines; Hs-578T, Breast Cancer, HS 578T): 0.66 µM
- GI50 (NCI-60 cancer cell lines; K562, Leukemia, K-562): 0.18 µM
- GI50 (NCI-60 cancer cell lines; KM12, Colon Cancer, KM12): 0.19 µM
- GI50 (NCI-60 cancer cell lines; LOX IMVI, Melanoma, LOX IMVI): 0.05 µM
- GI50 (NCI-60 cancer cell lines; Leukemia, SR): < 0.01 µM
- GI50 (NCI-60 cancer cell lines; MCF7, Breast Cancer, MCF7): < 0.01 µM
- GI50 (NCI-60 cancer cell lines; MDA-MB-231, Breast Cancer, MDA-MB-231/ATCC): 0.68 µM
- GI50 (NCI-60 cancer cell lines; MDA-MB-435, Melanoma, MDA-MB-435): 0.39 µM
- GI50 (NCI-60 cancer cell lines; MOLT-4, Leukemia, MOLT-4): < 0.01 µM
- GI50 (NCI-60 cancer cell lines; Malme-3M, Melanoma, MALME-3M): 0.21 µM
- GI50 (NCI-60 cancer cell lines; Melanoma, M14): 0.32 µM
- GI50 (NCI-60 cancer cell lines; NCI-H23, Non-Small Cell Lung Cancer, NCI-H23): 0.21 µM
- GI50 (NCI-60 cancer cell lines; NCI-H226, Non-Small Cell Lung Cancer, NCI-H226): 1.42 µM
- GI50 (NCI-60 cancer cell lines; NCI-H322M, Non-Small Cell Lung Cancer, NCI-H322M): 0.34 µM
- GI50 (NCI-60 cancer cell lines; NCI-H460, Non-Small Cell Lung Cancer, NCI-H460): < 0.01 µM
- GI50 (NCI-60 cancer cell lines; NCI-H522, Non-Small Cell Lung Cancer, NCI-H522): 0.02 µM
- GI50 (NCI-60 cancer cell lines; OVCAR-3, Ovarian Cancer, OVCAR-3): 0.41 µM
- GI50 (NCI-60 cancer cell lines; OVCAR-4, Ovarian Cancer, OVCAR-4): 0.23 µM
- GI50 (NCI-60 cancer cell lines; OVCAR-5, Ovarian Cancer, OVCAR-5): 0.38 µM
- GI50 (NCI-60 cancer cell lines; OVCAR-8, Ovarian Cancer, OVCAR-8): 0.07 µM
- GI50 (NCI-60 cancer cell lines; Ovarian Cancer, NCl/ADR-RES): 1.04 µM
- GI50 (NCI-60 cancer cell lines; Prostate Cancer, PC-3): 0.28 µM
- GI50 (NCI-60 cancer cell lines; RPMI-8226, Leukemia, RPMI-8226): 0.1 µM
- GI50 (NCI-60 cancer cell lines; RXF 393, Renal Cancer, RXF 393): 0.96 µM
- GI50 (NCI-60 cancer cell lines; Renal Cancer, U0-31): 0.1 µM
- GI50 (NCI-60 cancer cell lines; SF-268, CNS Cancer, SF-268): 0.07 µM
- GI50 (NCI-60 cancer cell lines; SF-295, CNS Cancer, SF-295): 0.08 µM
- GI50 (NCI-60 cancer cell lines; SF-539, CNS Cancer, SF-539): 0.11 µM
- GI50 (NCI-60 cancer cell lines; SK-MEL-2, Melanoma, SK-MEL-2): 0.55 µM
- GI50 (NCI-60 cancer cell lines; SK-MEL-5, Melanoma, SK-MEL-5): 0.07 µM
- GI50 (NCI-60 cancer cell lines; SK-MEL-28, Melanoma, SK-MEL-28): 1.11 µM
- GI50 (NCI-60 cancer cell lines; SK-OV-3, Ovarian Cancer, SK-OV-3): 0.22 µM
- GI50 (NCI-60 cancer cell lines; SN12C, Renal Cancer, SN12C): 0.16 µM
- GI50 (NCI-60 cancer cell lines; SNB-19, CNS Cancer, SNB-19): 0.11 µM
- GI50 (NCI-60 cancer cell lines; SNB-75, CNS Cancer, SNB-75): 0.23 µM
- GI50 (NCI-60 cancer cell lines; SW-620, Colon Cancer, SW-620): 0.04 µM
- GI50 (NCI-60 cancer cell lines; T47D, Breast Cancer, T-47D): 0.05 µM
- GI50 (NCI-60 cancer cell lines; TK-10, Renal Cancer, TK-10): 0.41 µM
- GI50 (NCI-60 cancer cell lines; U-251, CNS Cancer, U251): 0.1 µM
- GI50 (NCI-60 cancer cell lines; UACC-62, Melanoma, UACC-62): 0.55 µM
- GI50 (NCI-60 cancer cell lines; UACC-257, Melanoma, UACC-257): 1.18 µM
- mean GI50 across NCI-60 panel (MGM) (NCI-60 cancer cell lines; average of GI50 values across the entire panel of NCI-60 cancer cell lines): 140 nM
- binding to MycG4 by 1H NMR titration (MycG4 (MycPu22 DNA)): more specific binding to MycG4
- minimal effective concentration ([1]; Homo sapiens, MCF7, western blotting, MCF-7 cells, 0.5, 1, 2, and 4 μM, 24 hours, read-out: MYC Inhibition): 0.5 to 1 µM
- MYC-inhibitory effect (MYC protein, western blot) ([1]; MCF-7, 0.5, 1, 2, and 4 μM, 24 h): clear MYC-inhibitory effect
